What was measured:
Format in all cases: in vivo
rice (Oryza sativa) = test: Test B flooded paddy test, visual plant response rating; details: 250 g ai/ha, Flood, applied to paddy water, 2-leaf stage, evaluated after 13 to 15 days
Summary of the method: (§1)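 At the two-leaf stage, seedlings received compound applied to paddy water flooded 3 cm above soil, a level sustained until assessment. Greenhouse incubation lasted 13 to 15 days before visual comparison with control plants.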

[1] = system: ducksalad (Heteranhera limosa); test: as above; details: 250 g ai/ha, Flood, applied to paddy water, 2-leaf stage, evaluated after 13 to 15 days
Summary of the method: as §1

[2] = system: sedge, umbrella (small-flower umbrella sedge, Cyperus difformis); test: as above; details: 250 g ai/ha, Flood, applied to paddy water, 2-leaf stage, evaluated after 13 to 15 days
Summary of the method: as §1

[3] = system: barnyardgrass (Echinochloa crus-galli); test: as above; details: 250 g ai/ha, Flood, applied to paddy water, 2-leaf stage, evaluated after 13 to 15 days
Summary of the method: as §1

[4] = system: blackgrass (Alopecurus myosuroides); test: Test A postemergence, visual plant response rating; details: for Blackgrass plant response rating (0 to 100 scale): 500 g ai/ha, postemergence, 0 is no effect, 100 is complete control; for Blackgrass plant response rating: Postemergence, 125 g ai/ha, 0 to 100 scale (0 no effect, 100 complete control)
Summary of the method: (§2)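 Compared with untreated controls, treated plants received a visual injury score on a 0–100 scale around 10 days after application. The compound, in a non-phytotoxic solvent with surfactant, was given as a preemergence soil spray or postemergence at the one- to two-leaf stage.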

[5] = system: foxtail, giant (giant foxtail, Setaria faberii); test: Test A postemergence, visual plant response rating; details: for Foxtail, Giant plant response rating (0 to 100 scale): 500 g ai/ha, postemergence, 0 is no effect, 100 is complete control; for Foxtail, Giant plant response rating: Postemergence, 125 g ai/ha, 0 to 100 scale (0 no effect, 100 complete control)
Summary of the method: as §2

corn (Zea mays) = test: Test A postemergence, visual plant response rating; details: for Corn plant response rating (0 to 100 scale): 500 g ai/ha, postemergence, 0 is no effect, 100 is complete control; for Corn plant response rating: Postemergence, 125 g ai/ha, 0 to 100 scale (0 no effect, 100 complete control)
Summary of the method: as §2

[6] = system: galium (catchweed bedstraw, Galium aparine); test: Test A postemergence, visual plant response rating; details: for Galium plant response rating (0 to 100 scale): 500 g ai/ha, postemergence, 0 is no effect, 100 is complete control; for Galium plant response rating: Postemergence, 125 g ai/ha, 0 to 100 scale (0 no effect, 100 complete control)
Summary of the method: as §2

[7] = system: pigweed (Amaranthus retroflexus); test: Test A postemergence, visual plant response rating; details: for Pigweed plant response rating (0 to 100 scale): 500 g ai/ha, postemergence, 0 is no effect, 100 is complete control; for Pigweed plant response rating: Postemergence, 125 g ai/ha, 0 to 100 scale (0 no effect, 100 complete control)
Summary of the method: as §2

[8] = system: wheat (Triticum aestivum); test: Test A postemergence, visual plant response rating; details: for Wheat plant response rating (0 to 100 scale): 500 g ai/ha, postemergence, 0 is no effect, 100 is complete control; for Wheat plant response rating: Postemergence, 125 g ai/ha, 0 to 100 scale (0 no effect, 100 complete control)
Summary of the method: as §2

[9] = system: Italian ryegrass (Lolium multiflorum); test: Test A postemergence, visual plant response rating; details: for Ryegrass, Italian plant response rating (0 to 100 scale): 500 g ai/ha, postemergence, 0 is no effect, 100 is complete control; for Ryegrass, Italian plant response rating: Postemergence, 125 g ai/ha, 0 to 100 scale (0 no effect, 100 complete control)
Summary of the method: as §2

[10] = system: barnyardgrass (Echinochloa crus-galli); test: Test A postemergence, visual plant response rating; details: for Barnyardgrass plant response rating (0 to 100 scale): 500 g ai/ha, postemergence, 0 is no effect, 100 is complete control; for Barnyardgrass plant response rating: Postemergence, 125 g ai/ha, 0 to 100 scale (0 no effect, 100 complete control)
Summary of the method: as §2

[11] = system: ragweed (common ragweed, Ambrosia elatior); test: Test A postemergence, visual plant response rating; details: for Ragweed plant response rating (0 to 100 scale): 500 g ai/ha, postemergence, 0 is no effect, 100 is complete control; for Ragweed plant response rating: Postemergence, 125 g ai/ha, 0 to 100 scale (0 no effect, 100 complete control)
Summary of the method: as §2

kochia (Kochia scoparia) [12] = test: Test A postemergence, visual plant response rating; details: for Kochia plant response rating (0 to 100 scale): 500 g ai/ha, postemergence, 0 is no effect, 100 is complete control; for Kochia plant response rating: Postemergence, 125 g ai/ha, 0 to 100 scale (0 no effect, 100 complete control)
Summary of the method: as §2

[13] = system: foxtail, giant (giant foxtail, Setaria faberii); test: Test A preemergence, visual plant response rating; details: for Foxtail, Giant plant response rating: 125 g ai/ha, preemergence, 0 to 100 scale, 0 no effect, 100 complete control; for Foxtail, Giant plant response rating (0 to 100 scale): 500 g ai/ha Preemergence, approx. 10 days
Summary of the method: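 Ratings use a 0–100 visual scale (100 = complete control) against untreated controls, scored about 10 days after greenhouse treatment. Test chemicals were formulated in surfactant-containing non-phytotoxic solvent and applied either as soil spray after planting (preemergence) or onto one- to two-leaf, 2–10 cm plants (postemergence).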

[14] = system: pigweed (Amaranthus retroflexus); test: Test A preemergence, visual plant response rating; details: for Pigweed plant response rating: 125 g ai/ha, preemergence, 0 to 100 scale, 0 no effect, 100 complete control; for Pigweed plant response rating (0 to 100 scale): 500 g ai/ha Preemergence, approx. 10 days
Summary of the method: as §2

[15] = system: Italian ryegrass (Lolium multiflorum); test: Test A preemergence, visual plant response rating; details: for Ryegrass, Italian plant response rating: 125 g ai/ha, preemergence, 0 to 100 scale, 0 no effect, 100 complete control; for Ryegrass, Italian plant response rating (0 to 100 scale): 500 g ai/ha Preemergence, approx. 10 days
Summary of the method: as §2

[16] = system: barnyardgrass (Echinochloa crus-galli); test: Test A preemergence, visual plant response rating; details: for Barnyardgrass plant response rating: 125 g ai/ha, preemergence, 0 to 100 scale, 0 no effect, 100 complete control; for Barnyardgrass plant response rating (0 to 100 scale): 500 g ai/ha Preemergence, approx. 10 days
Summary of the method: as §2

[17] = system: ragweed (common ragweed, Ambrosia elatior); test: Test A preemergence, visual plant response rating; details: for Ragweed plant response rating: 125 g ai/ha, preemergence, 0 to 100 scale, 0 no effect, 100 complete control; for Ragweed plant response rating (0 to 100 scale): 500 g ai/ha Preemergence, approx. 10 days
Summary of the method: as §2

kochia (Kochia scoparia) [18] = test: Test A preemergence, visual plant response rating; details: for Kochia plant response rating: 125 g ai/ha, preemergence, 0 to 100 scale, 0 no effect, 100 complete control; for Kochia plant response rating (0 to 100 scale): 500 g ai/ha Preemergence, approx. 10 days
Summary of the method: as §2

Compound	Plant response rating, Rice (0 to 100 scale, 0 is no effect, 100 is complete control) (rice (Oryza sativa))	Plant response rating, Ducksalad (0 to 100 scale, 0 is no effect, 100 is complete control) [1]	Plant response rating, Sedge, Umbrella (0 to 100 scale, 0 is no effect, 100 is complete control) [2]	Plant response rating, Barnyardgrass (0 to 100 scale, 0 is no effect, 100 is complete control) [3]	Blackgrass plant response rating (0 to 100 scale) [4]	Blackgrass plant response rating [4]	Foxtail, Giant plant response rating (0 to 100 scale) [5]	Foxtail, Giant plant response rating [5]	Corn plant response rating (0 to 100 scale) (corn (Zea mays))	Corn plant response rating (corn (Zea mays))	Galium plant response rating (0 to 100 scale) [6]	Galium plant response rating [6]	Pigweed plant response rating (0 to 100 scale) [7]	Pigweed plant response rating [7]	Wheat plant response rating (0 to 100 scale) [8]	Wheat plant response rating [8]	Ryegrass, Italian plant response rating (0 to 100 scale) [9]	Ryegrass, Italian plant response rating [9]	Barnyardgrass plant response rating (0 to 100 scale) [10]	Barnyardgrass plant response rating [10]	also measured
CON=C(c1ccc(F)cc1C)c1c(O)c(C)nn(C)c1=O [Compound 41]	0	0	0	0	0	0	0	0	0	0	70	70	90	40	20	0	60	0	0	0	Ragweed plant response rating (0 to 100 scale) [11]: 60; Ragweed plant response rating [11]: 30; Kochia plant response rating (0 to 100 scale) (kochia (Kochia scoparia) [12]): 60; Kochia plant response rating (kochia (Kochia scoparia) [12]): 20; Foxtail, Giant plant response rating [13]: 0; Foxtail, Giant plant response rating (0 to 100 scale) [13]: 0; Pigweed plant response rating [14]: 0; Pigweed plant response rating (0 to 100 scale) [14]: 80; Ryegrass, Italian plant response rating [15]: 0; Ryegrass, Italian plant response rating (0 to 100 scale) [15]: 20; Barnyardgrass plant response rating [16]: 0; Barnyardgrass plant response rating (0 to 100 scale) [16]: 10; Ragweed plant response rating [17]: 0; Ragweed plant response rating (0 to 100 scale) [17]: 80; Kochia plant response rating (kochia (Kochia scoparia) [18]): 0; Kochia plant response rating (0 to 100 scale) (kochia (Kochia scoparia) [18]): 0
CO/N=C(\c1ccsc1C)c1c(O)c(C)nn(C)c1=O [Compound 43]	0	0	0	0	20	0	0	0	0	0	50	20	60	20	0	0	30	0	0	0	Ragweed plant response rating (0 to 100 scale) [11]: 30; Ragweed plant response rating [11]: 20; Kochia plant response rating (0 to 100 scale) (kochia (Kochia scoparia) [12]): 20; Kochia plant response rating (kochia (Kochia scoparia) [12]): 0; Foxtail, Giant plant response rating [13]: 0; Foxtail, Giant plant response rating (0 to 100 scale) [13]: 0; Pigweed plant response rating [14]: 0; Pigweed plant response rating (0 to 100 scale) [14]: 30; Ryegrass, Italian plant response rating [15]: 0; Ryegrass, Italian plant response rating (0 to 100 scale) [15]: 0; Barnyardgrass plant response rating [16]: 0; Barnyardgrass plant response rating (0 to 100 scale) [16]: 0; Ragweed plant response rating [17]: 0; Ragweed plant response rating (0 to 100 scale) [17]: 20; Kochia plant response rating (kochia (Kochia scoparia) [18]): 0; Kochia plant response rating (0 to 100 scale) (kochia (Kochia scoparia) [18]): 0
CCCO/N=C(\c1c(O)c(C)nn(C)c1=O)c1cccc2ccccc12 [Compound 80]	0	0	0	0	90	70	80	60	20	10	90	80	80	70	0	0	70	20	60	50	Ragweed plant response rating (0 to 100 scale) [11]: 90; Ragweed plant response rating [11]: 80; Kochia plant response rating (0 to 100 scale) (kochia (Kochia scoparia) [12]): 60; Kochia plant response rating (kochia (Kochia scoparia) [12]): 30; Foxtail, Giant plant response rating [13]: 60; Foxtail, Giant plant response rating (0 to 100 scale) [13]: 100; Pigweed plant response rating [14]: 20; Pigweed plant response rating (0 to 100 scale) [14]: 100; Ryegrass, Italian plant response rating [15]: 10; Ryegrass, Italian plant response rating (0 to 100 scale) [15]: 30; Barnyardgrass plant response rating [16]: 60; Barnyardgrass plant response rating (0 to 100 scale) [16]: 80; Ragweed plant response rating [17]: 50; Ragweed plant response rating (0 to 100 scale) [17]: 100; Kochia plant response rating (kochia (Kochia scoparia) [18]): 0; Kochia plant response rating (0 to 100 scale) (kochia (Kochia scoparia) [18]): 10

From patent US20210045385A1, “PYRIDAZINONE-SUBSTITUTED KETOXIMES AS HERBICIDES” (FMC Corporation, priority 2018, published 2021)
